Source: paper PMC9698768, “Laminaria japonica Peptides Suppress Liver Cancer by Inducing Apoptosis: Possible Signaling Pathways and Mechanism” (Marine Drugs, 2022)
Residues, ends and D or L forms follow the SMILES beside them.

Assays:
HepG2 = assay type: cell-based, human; settings: 48 h
Text: (§1) Liver cancer cells (HuH7, HepG2, and H22) and human liver cells (HL-7702) were obtained from the Cell Bank of the Chinese Academy of Sciences (Shanghai, China). Fresh L. japonica was acquired from the South China Agricultural University (Guangzhou, China) and identified by Professor C. Wang (South China Agricultural University, Guangzhou, China). The annexin V-FITC/PI staining assay kit and propidium iodide (PI) reagents were supplied by Beyotime (Shanghai, China). Dulbecco’s modified Eagle medium (DMEM), fetal bovine serum (FBS), and penicillin-streptomycin (PS) were purchased from Gibco BRL (Life Technologies, Grand Island, NY, USA). The antibodies used in the current study were acquired from Cell Signaling Technology, Inc. (Manchester, NH, USA). Cell lines were grown in specific medium supplemented with 10% FBS. Cells were grown in a humidified atmosphere with 5% CO2 in incubators maintained at 37 °C. Balb/c mice (6–8 weeks old, 20 ± 2 g) were acquired from the Guangdong Experimental Animal Center. Ab MTT assay was used to detect the cytotoxicity activity of LJPs in vitro [42]. Briefly, 5 × 10^3 cells/well were seeded in 96-well plates, and varying concentrations of LJP were added. After 48 h, the MTT solution (5 mg/mL) was added for an additional 4 h. The absorbance was measured at 570 nm using a microplate reader (Bio-Rad; Hercules, CA, USA) after 100 μL of DMSO was added. The IC^50 values were determined by the non-linear multipurpose curve-fitting program.

HuH7 = assay type: cell-based, human; settings: 48 h
Text: as §1

H22 = assay type: cell-based; settings: 48 h
Text: as §1

in vitro = assay type: cell-based; settings: human
Text: as §1, with “Briefly, 5 × 10^3 cells/well were seeded in 96-well plates, and varying concentrations of LJP were added. After 48 h, the MTT solution (5 mg/mL) was added for an additional 4 h.” left out

IC50 (HepG2) | IC50 (HuH7) | IC50 (H22) | IC50 at 48 h (in vitro) | Compound
610 ± 70 µM | 490 ± 50 µM | 700 ± 70 µM | – | N[C@@H](Cc1ccc(O)cc1)C(=O)N[C@@H](CCC(=O)O)C(=O)N[C@@H](Cc1c[nH]cn1)C(=O)N[C@@H](CO)C(=O)N[C@@H](Cc1c[nH]cn1)C(=O)NCC(=O)O [LJP-11] (H-YEHSHG-OH)
630 ± 50 µM | 440 ± 40 µM | 760 ± 80 µM | – | CC(C)[C@H](NC(=O)[C@H](Cc1ccc(O)cc1)NC(=O)[C@@H](NC(=O)[C@H](Cc1c[nH]cn1)NC(=O)[C@H](CO)NC(=O)[C@@H](N)Cc1ccccc1)[C@@H](C)O)C(=O)O [LJP-8] (H-FSHTYV-OH)
2690 ± 220 µM | 3520 ± 350 µM | 3530 ± 340 µM | – | C[C@H](NC(=O)[C@@H](N)Cc1c[nH]cn1)C(=O)N[C@@H](CO)C(=O)N[C@@H](Cc1c[nH]c2ccccc12)C(=O)N[C@@H](CCC(=O)O)C(=O)N[C@@H](Cc1c[nH]cn1)C(=O)O [LJP-10] (H-HASWEH-OH)
3060 ± 310 µM | > 4000 µM | > 4000 µM | – | NCCCC[C@H](NC(=O)[C@@H](N)Cc1ccccc1)C(=O)N[C@@H](CCC(=O)O)C(=O)N[C@@H](Cc1c[nH]cn1)C(=O)NCC(=O)N[C@@H](Cc1ccc(O)cc1)C(=O)O [LJP-6] (H-FKEHGY-OH)
650 ± 70 µM | 620 ± 70 µM | 680 ± 70 µM | – | N[C@@H](CCC(=O)O)C(=O)NCC(=O)N[C@@H](Cc1c[nH]cn1)C(=O)NCC(=O)N[C@@H](Cc1ccccc1)C(=O)O [LJP-4] (H-EGHGF-OH)
600 ± 80 µM | 410 ± 40 µM | 720 ± 50 µM | – | C[C@@H](O)[C@H](N)C(=O)N[C@@H](Cc1ccccc1)C(=O)N[C@@H](CCCCN)C(=O)N[C@@H](Cc1c[nH]cn1)C(=O)NCC(=O)O [LJP-12] (H-TFKHG-OH)
1660 ± 110 µM | 2530 ± 240 µM | 1440 ± 120 µM | – | C[C@H](NC(=O)[C@H](Cc1c[nH]c2ccccc12)NC(=O)[C@H](CO)NC(=O)[C@H](Cc1ccc(O)cc1)NC(=O)CNC(=O)[C@H](C)NC(=O)[C@@H](N)Cc1c[nH]cn1)C(=O)O [LJP-7] (H-HAGYSWA-OH)
690 ± 80 µM | 530 ± 50 µM | 510 ± 70 µM | – | N[C@@H](Cc1ccccc1)C(=O)N[C@@H](CCC(=O)O)C(=O)N[C@@H](Cc1c[nH]cn1)C(=O)N[C@@H](CO)C(=O)NCC(=O)O [LJP-9] (H-FEHSG-OH)
450 ± 50 µM | 480 ± 50 µM | 360 ± 30 µM | 7760 ± 710 µM | CC(C)C[C@H](NC(=O)[C@H](Cc1c[nH]cn1)NC(=O)[C@H](Cc1ccccc1)NC(=O)CNC(=O)[C@@H](N)CCC(=O)O)C(=O)O [LJP-1] (H-EGFHL-OH)
> 4000 µM | 1420 ± 120 µM | 1700 ± 150 µM | – | N=C(N)NCCC[C@H](NC(=O)[C@H](Cc1c[nH]cn1)NC(=O)[C@H](CO)NC(=O)[C@@H](N)Cc1ccccc1)C(=O)NCC(=O)N[C@@H](Cc1c[nH]cn1)C(=O)O [LJP-3] (H-FSHRGH-OH)
2780 ± 260 µM | 2440 ± 220 µM | 1490 ± 130 µM | – | C[C@@H](O)[C@H](NC(=O)[C@H](CO)NC(=O)[C@@H](N)Cc1ccccc1)C(=O)N[C@@H](Cc1c[nH]cn1)C(=O)NCC(=O)NCC(=O)O [LJP-5] (H-FSTHGG-OH)
1710 ± 130 µM | 2250 ± 220 µM | 620 ± 50 µM | – | CC(C)C[C@H](N)C(=O)N[C@@H](Cc1c[nH]c2ccccc12)C(=O)N[C@@H](CCC(=O)O)C(=O)N[C@@H](Cc1c[nH]cn1)C(=O)N[C@@H](CO)C(=O)N[C@@H](Cc1c[nH]cn1)C(=O)O [LJP-2] (H-LWEHSH-OH)
